Laboratory results as given in ChEMBL document CHEMBL4330122, “Modified ribavirin analogues as antiviral agents against Junín virus” (Bioorg Med Chem Lett, 2019).

Assays:
[1] = Cytotoxicity against human A549 cells assessed as reduction in cell viability after 48 hrs by MTT assay; assay type: cell-based
[2] = system: Junin virus; assay type: functional, organism-based; conditions: Mammarenavirus juninense, IV4454, A549, 48 h
[3] = Cytotoxicity against African green monkey Vero cells assessed as reduction in cell viability after 48 hrs by MTT assay; assay type: cell-based; conditions: chlorocebus sabaeus
[4] = system: Junin virus; assay type: functional, organism-based; conditions: Mammarenavirus juninense, IV4454, Vero, 48 h
[5] = in vitro; conditions: human, A549 cells
[6] = in vitro; conditions: monkey, Vero cells
[7] = Solubility of the compound in water; assay type: physicochemical

SMILES	CC50 at 48 h [1] [µM]	EC50 [2] [µM]	CC50 at 48 h [3] [µM]	EC50 [4] [µM]	selectivity ratio [5]	selectivity ratio [6]	solubility [7] [mg/mL]
OCc1cn([C@@H]2O[C@H](CO)[C@@H](O)[C@H]2O)nn1	> 1000	50.7	> 1000	215	> 19.7	> 4.7	–
CC1(C)O[C@@H]2[C@H](O1)[C@@H](Cn1cc(COC[C@H]3OC(O)[C@H](O)[C@@H](O)[C@H]3O)nn1)O[C@H]2n1cc(COCC(COCc2cn([C@@H]3O[C@H](Cn4cc(COC[C@H]5OC(O)[C@H](O)[C@@H](O)[C@H]5O)nn4)[C@H]4OC(C)(C)O[C@H]43)nn2)(COCc2cn([C@@H]3O[C@H](Cn4cc(COC[C@H]5OC(O)[C@H](O)[C@@H](O)[C@H]5O)nn4)[C@H]4OC(C)(C)O[C@H]43)nn2)COCc2cn([C@@H]3O[C@H](Cn4cc(COC[C@H]5OC(O)[C@H](O)[C@@H](O)[C@H]5O)nn4)[C@H]4OC(C)(C)O[C@H]43)nn2)nn1 (stereo partly drawn)	> 1000	119	> 1000	117	> 8.4	> 8.6	> 100
CCCCn1cc(COC[C@@H](O)[C@H](O)[C@H](O)[C@@H](O)CO)nn1	> 1000	> 500	> 1000	> 500	–	–	> 100
CCCCn1cc(COC[C@H]2OC(O)[C@H](O)[C@@H](O)[C@H]2O)nn1 (stereo partly drawn)	> 1000	113	> 1000	371	> 8.9	> 2.7	> 100
CC1(C)O[C@@H]2[C@H](O1)[C@@H](Cn1cc(COC[C@@H](O)[C@H](O)[C@H](O)[C@@H](O)CO)nn1)O[C@H]2n1cc(COCC(COCc2cn([C@@H]3O[C@H](Cn4cc(COC[C@@H](O)[C@H](O)[C@H](O)[C@@H](O)CO)nn4)[C@H]4OC(C)(C)O[C@H]43)nn2)(COCc2cn([C@@H]3O[C@H](Cn4cc(COC[C@H](O)[C@@H](O)[C@@H](O)[C@H](O)CO)nn4)[C@H]4OC(C)(C)O[C@H]43)nn2)COCc2cn([C@@H]3O[C@H](Cn4cc(COC[C@H](O)[C@@H](O)[C@@H](O)[C@H](O)CO)nn4)[C@H]4OC(C)(C)O[C@H]43)nn2)nn1	> 1000	> 500	> 1000	> 500	–	–	> 100
OC[C@@H](O)[C@H](O)[C@H](O)[C@@H](O)COCc1cn(CC(Cn2cc(COC[C@@H](O)[C@H](O)[C@H](O)[C@@H](O)CO)nn2)(Cn2cc(COC[C@@H](O)[C@H](O)[C@H](O)[C@@H](O)CO)nn2)Cn2cc(COC[C@@H](O)[C@H](O)[C@H](O)[C@@H](O)CO)nn2)nn1	> 1000	> 500	> 1000	> 500	–	–	> 100
CC(=O)OC[C@H]1O[C@@H](n2cc(COCC(COCc3cn([C@@H]4O[C@H](COC(C)=O)[C@@H](OC(C)=O)[C@H]4OC(C)=O)nn3)(COCc3cn([C@@H]4O[C@H](COC(C)=O)[C@@H](OC(C)=O)[C@H]4OC(C)=O)nn3)COCc3cn([C@@H]4O[C@H](COC(C)=O)[C@@H](OC(C)=O)[C@H]4OC(C)=O)nn3)nn2)[C@H](OC(C)=O)[C@@H]1OC(C)=O	> 1000	> 500	> 1000	> 500	–	–	–
CC1(C)O[C@@H]2[C@H](O1)[C@@H](CO)O[C@H]2n1cc(CO)nn1	> 1000	86.4	> 1000	51.3	> 11.6	> 19.5	–
CC1(C)O[C@H]2[C@H](OCc3cn(CC(Cn4cc(CO[C@@H]5O[C@H](Cn6cc(COC[C@@H](O)[C@H](O)[C@H](O)[C@@H](O)CO)nn6)[C@H]6OC(C)(C)O[C@@H]56)nn4)(Cn4cc(CO[C@@H]5O[C@H](Cn6cc(COC[C@H](O)[C@@H](O)[C@@H](O)[C@H](O)CO)nn6)[C@H]6OC(C)(C)O[C@@H]56)nn4)Cn4cc(CO[C@@H]5O[C@H](Cn6cc(COC[C@H](O)[C@@H](O)[C@@H](O)[C@H](O)CO)nn6)[C@H]6OC(C)(C)O[C@@H]56)nn4)nn3)O[C@H](Cn3cc(COC[C@@H](O)[C@H](O)[C@H](O)[C@@H](O)CO)nn3)[C@H]2O1	> 1000	314	> 1000	> 500	> 3.2	–	> 100
CCCCn1cc(CO[C@@H]2O[C@H](CN=[N+]=[N-])[C@H]3OC(C)(C)O[C@@H]23)nn1	525	13.6	762	13.2	38.5	57.9	–
CC(=O)OC[C@H]1O[C@@H](n2cc(CO)nn2)[C@H](OC(C)=O)[C@@H]1OC(C)=O	> 1000	322	> 1000	130	> 3.1	> 7.7	–
CCCCn1cc(CO[C@@H]2O[C@H](CO)[C@H]3OC(C)(C)O[C@@H]23)nn1	> 1000	55.9	> 1000	57.2	> 17.9	> 17.5	–
OC1O[C@H](COCc2cn(CC(Cn3cc(COC[C@H]4OC(O)[C@H](O)[C@@H](O)[C@H]4O)nn3)(Cn3cc(COC[C@H]4OC(O)[C@H](O)[C@@H](O)[C@H]4O)nn3)Cn3cc(COC[C@H]4OC(O)[C@H](O)[C@@H](O)[C@H]4O)nn3)nn2)[C@H](O)[C@H](O)[C@H]1O (stereo partly drawn)	> 1000	314	> 1000	371	> 3.2	> 2.7	> 100
CC1(C)O[C@H]2[C@H](OCc3cn(CC(Cn4cc(CO[C@@H]5O[C@H](CO)[C@H]6OC(C)(C)O[C@@H]56)nn4)(Cn4cc(CO[C@@H]5O[C@H](CO)[C@H]6OC(C)(C)O[C@@H]56)nn4)Cn4cc(CO[C@@H]5O[C@H](CO)[C@H]6OC(C)(C)O[C@@H]56)nn4)nn3)O[C@H](CO)[C@H]2O1	209	33.4	233	35.5	6.2	6.5	–
CC1(C)O[C@H]2[C@H](OCc3cn(CC(Cn4cc(CO[C@@H]5O[C@H](Cn6cc(COC[C@H]7OC(O)[C@H](O)[C@@H](O)[C@H]7O)nn6)[C@H]6OC(C)(C)O[C@@H]56)nn4)(Cn4cc(CO[C@@H]5O[C@H](Cn6cc(COC[C@H]7OC(O)[C@H](O)[C@@H](O)[C@H]7O)nn6)[C@H]6OC(C)(C)O[C@@H]56)nn4)Cn4cc(CO[C@@H]5O[C@H](Cn6cc(COC[C@H]7OC(O)[C@H](O)[C@@H](O)[C@H]7O)nn6)[C@H]6OC(C)(C)O[C@@H]56)nn4)nn3)O[C@H](Cn3cc(COC[C@H]4OC(O)[C@H](O)[C@@H](O)[C@H]4O)nn3)[C@H]2O1 (stereo partly drawn)	> 1000	> 500	> 1000	> 500	–	–	> 100
CCCCn1cc(CO[C@@H]2O[C@H](Cn3cc(COC[C@@H](O)[C@H](O)[C@H](O)[C@@H](O)CO)nn3)[C@H]3OC(C)(C)O[C@@H]23)nn1	> 1000	389	> 1000	209	> 2.6	> 4.8	> 100
OC[C@H]1O[C@@H](n2cc(COCC(COCc3cn([C@@H]4O[C@H](CO)[C@@H](O)[C@H]4O)nn3)(COCc3cn([C@@H]4O[C@H](CO)[C@@H](O)[C@H]4O)nn3)COCc3cn([C@@H]4O[C@H](CO)[C@@H](O)[C@H]4O)nn3)nn2)[C@H](O)[C@@H]1O	> 1000	> 500	> 1000	> 500	–	–	–
CC1(C)O[C@@H]2[C@H](O1)[C@@H](CO)O[C@H]2n1cc(COCC(COCc2cn([C@@H]3O[C@H](CO)[C@H]4OC(C)(C)O[C@H]43)nn2)(COCc2cn([C@@H]3O[C@H](CO)[C@H]4OC(C)(C)O[C@H]43)nn2)COCc2cn([C@@H]3O[C@H](CO)[C@H]4OC(C)(C)O[C@H]43)nn2)nn1	> 1000	> 500	> 1000	> 500	–	–	–
CCCCn1cc(CO[C@@H]2O[C@H](Cn3cc(COC[C@H]4OC(O)[C@H](O)[C@@H](O)[C@H]4O)nn3)[C@H]3OC(C)(C)O[C@@H]23)nn1 (stereo partly drawn)	> 1000	20.6	> 1000	22.1	> 48.5	> 45.2	> 100
CC1(C)O[C@H]2[C@H](OCc3cn(CC(Cn4cc(CO[C@@H]5O[C@H](CN=[N+]=[N-])[C@H]6OC(C)(C)O[C@@H]56)nn4)(Cn4cc(CO[C@@H]5O[C@H](CN=[N+]=[N-])[C@H]6OC(C)(C)O[C@@H]56)nn4)Cn4cc(CO[C@@H]5O[C@H](CN=[N+]=[N-])[C@H]6OC(C)(C)O[C@@H]56)nn4)nn3)O[C@H](CN=[N+]=[N-])[C@H]2O1 (stereo partly drawn)	> 1000	> 500	> 1000	> 500	–	–	–
NC(=O)c1ncn([C@@H]2O[C@H](CO)[C@@H](O)[C@H]2O)n1 [RIBAVIRIN]	307	19.2	> 400	–	15.9	> 21.6	–
